This is an account of results in patent US11116776B2, “Intravitreal drug delivery systems for the treatment of ocular conditions” (Aerie Pharmaceuticals, Inc., priority 2015, dated 2021).

The conditions of data set [1]: monkey (Chang-Lin 2011); cited from earlier work.
Data set [2] in a line: ENVRES-PRE-002 ocular pharmacokinetics after intravitreal injection. The format is in vivo, New Zealand White rabbits. Particulars: rabbit; for Cmax: male, New Zealand White, topical or ocular. How it is done: New Zealand White rabbits, 2 males/group/terminal time point, were administered a single bilateral intravitreal injection of either ENV1105 or OZURDEX and were followed for up 1, 2, 3, and/or 5 months. Animals were examined via slit lamp ophthalmoscopy and indirect ophthalmoscopy.
Ocular tissues, including aqueous humor, vitreous humor, and retina, were processed and analyzed for dexamethasone or FA by two of three methods. Dexamethasone present in ocular tissue samples was quantified by ELISA and HPLC. FA present in ocular tissues was quantified by HPLC and mass spectrometry. Prior to analysis, implants or particles were separated from vitreous humor samples via manual removal or centrifugation. Vitreous humor and aqueous humor tissue samples were analyzed as received or diluted with ACN for LC MS/MS or PBS for ELISA.
Animals were followed for up to 3 months, with ocular matrices (retina/choroid, vitreous humor and aqueous humor) collected to determine ocular pharmacokinetics at Months 2 and 3. Ocular exams were conducted on Days 2, 3, 6, 10, weekly through Day 28, and then biweekly through Month 3 to determine tolerability. A summary of the study designed is provided below in Table 10.

The subject of data set [3] is VEGF-induced vascular leakage. Particulars: rabbit model (Edelman 2005); cited from earlier work.

Usually Cmax stands for the peak of the concentration-time curve.

`C[C@@H]1C[C@H]2[C@@H]3CCC4=CC(=O)C=C[C@]4(C)[C@@]3(F)[C@@H](O)C[C@]2(C)[C@@]1(O)C(=O)CO` [Dexamethasone, (8S,9R,10S,11S,13S,14S,16R,17R)-9-Fluoro-11,17-dihydroxy-17-(2-hydroxyacetyl)-10,13,16-trimethyl-6,7,8,9,10,11,12,13,14,15,16,17-dodecahydro-3H-cyclopenta[a]phenanthren-3-one]: in data set [1], the “time dexamethasone was detected in the retina and vitreous humor” value is listed as 6 months. The Cmax in data set [2] (0.27 mg, aqueous humor, Group 4 (ENV-1R-0119-7-5, 6 implants, 270 μg/eye)) worked out at 5.9 ng/mL; in data set [2] (0.27 mg, retina/choroid, Group 4 (ENV-1R-0119-7-5, 6 implants, 270 μg/eye)) it was 28100 ng/g; in data set [2] (0.27 mg, vitreous humor, Group 4 (ENV-1R-0119-7-5, 6 implants, 270 μg/eye)), 3080 ng/mL. Further, the “efficacy in VEGF-induced vascular leakage” value in data set [3] is “effective”.

Take `CC1(C)O[C@@H]2C[C@H]3[C@@H]4C[C@H](F)C5=CC(=O)C=C[C@]5(C)[C@@]4(F)[C@@H](O)C[C@]3(C)[C@]2(C(=O)CO)O1` [fluocinolone acetonide, (1S,2S,4R,8S,9S,11S,12R,13S,19S)-12,19-difluoro-11-hydroxy-8-(2-hydroxyacetyl)-6,6,9,13-tetramethyl-5,7-dioxapentacyclo[10.8.0.0^2,9.0^4.8.0 ^13,18]icosa-14,17-dien-16-one]: the “day on which concentration peaked” value in data set [2] (Group 5 (ENV-1R-0119-33-7), retina/choroid and vitreous humor) was 84 days. The Cmax was determined as 3950 ng/g in data set [2] (0.0407 mg, retina/choroid, Group 5 (ENV-1R-0119-33-7, 40.7 μg/eye)) and 298 ng/g in data set [2] (0.0407 mg, vitreous humor, Group 5 (ENV-1R-0119-33-7, 40.7 μg/eye)).
